Here are results for 36 compounds from patent US8338565B2, “Macrocyclic compounds for inhibition of tumor necrosis factor alpha” (Ensemble Therapeutics Corporation, priority 2008, dated 2012).

Each structure is given as a SMILES string. pIC50: −log10 of the molar value. Numbered stars: 1 amine (or outer) side, 2 acyl side, 3 side chain; on linkers, the order of the positions; unused ones are H or OH. Bridge positions count the residues as written; N and C are the ends. Square brackets hold non-standard residues; d marks the D form. Peptide text beside a SMILES is read from it. Tartaroyl(2R,3R-(OAc)2) = CC(=O)O[C@@H](C(=O)[*:1])[C@@H](OC(C)=O)C(=O)[*:2]; Phe(4-COOH) = N[C@@H](Cc1ccc(C(=O)O)cc1)C(=O)O; Phe(2,4-Cl2) = N[C@@H](Cc1ccc(Cl)cc1Cl)C(=O)O; Bip = N[C@@H](Cc1ccc(-c2ccccc2)cc1)C(=O)O; dPhe(4-NH2) = Nc1ccc(C[C@@H](N)C(=O)O)cc1; Phe(4-Br) = N[C@@H](Cc1ccc(Br)cc1)C(=O)O; Phe(4-NH2) = Nc1ccc(C[C@H](N)C(=O)O)cc1; d(hPhe) = N[C@H](CCc1ccccc1)C(=O)O; d2Thi = N[C@H](Cc1cccs1)C(=O)O; Suc = O=C(CCC(=O)[*:2])[*:1]; Dap = NC[C@H](N)C(=O)O; GABA = NCCCC(=O)O Bounds are passed on as bounds.

For the test, the target named is T1, TNFα / TNFα receptor (TNFα R1/Fc) (Homo sapiens, UniProt P01375).
T1 construct: purchased R&D Systems
T1 sequence (P01375 77-233 limits assumed, species assumed): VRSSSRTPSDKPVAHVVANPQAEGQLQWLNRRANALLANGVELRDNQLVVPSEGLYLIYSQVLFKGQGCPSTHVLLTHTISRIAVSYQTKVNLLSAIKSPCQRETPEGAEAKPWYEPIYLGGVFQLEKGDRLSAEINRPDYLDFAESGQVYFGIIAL
The test is described as follows: Inhibition of binding of TNFα to the TNFα receptor (plate ELISA competition). As to conditions: Table 2; read-out: Activity (IC50, inhibition of TNFα binding to TNFα R1/Fc). Summed up:
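Compound dilutions were preincubated 30 min at RT with 8.33 nM TNFα R1/Fc in PBST with 2% DMSO, then added to wells coated with 15 nM TNFα for 30 min. Bound receptor was detected with HRP anti-human Fc and TMB, read as A450.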
In general terms: An ELISA detects its analyte on a solid surface through an enzyme-linked reagent.
Consider `O=C1COc2ccc(cc2)C[C@@H](C(=O)N[C@@H](Cc2ccccc2)C(=O)O)NC(=O)[C@H](Cc2ccccc2)NC(=O)[C@@H](Cc2ccc(-c3ccccc3)cc2)NC(=O)[C@H](Cc2cccs2)N1` [Compound 230], for which the pIC50 is 4.52 to 5.00.

As for `CC(=O)O[C@H]1C(=O)Nc2ccc(cc2)C[C@H](C(=O)O)NC(=O)[C@@H](Cc2ccccc2)NC(=O)[C@H](Cc2ccc(Br)cc2)NC(=O)[C@@H](Cc2ccccc2)NC(=O)[C@@H]1OC(C)=O` [Compound 231] ([dF][Phe(4-Br)][dF][dPhe(4-NH2)]-OH; linker N-4 via Tartaroyl(2R,3R-(OAc)2)), the pIC50 is less than 4.00.

Regarding `CC(=O)O[C@H]1C(=O)Nc2ccc(cc2)C[C@H](C(=O)O)NC(=O)[C@@H](Cc2ccccc2)NC(=O)[C@H](Cc2ccc(Br)cc2)NC(=O)[C@@H](Cc2cccs2)NC(=O)[C@@H]1OC(C)=O` [Compound 232] ([d2Thi][Phe(4-Br)][dF][dPhe(4-NH2)]-OH; linker N-4 via Tartaroyl(2R,3R-(OAc)2)), the pIC50 is less than 4.00.

As to `CC(=O)O[C@H]1C(=O)Nc2ccc(cc2)C[C@H](C(=O)O)NC(=O)[C@@H](Cc2ccccc2)NC(=O)[C@H](Cc2ccc(Cl)cc2Cl)NC(=O)[C@@H](Cc2ccccc2)NC(=O)[C@@H]1OC(C)=O` [Compound 233] ([dF][Phe(2,4-Cl2)][dF][dPhe(4-NH2)]-OH; linker N-4 via Tartaroyl(2R,3R-(OAc)2)), the pIC50 is 4.00 to 4.52.

Turning to `CC(=O)O[C@H]1C(=O)Nc2ccc(cc2)C[C@H](C(=O)O)NC(=O)[C@@H](Cc2ccccc2)NC(=O)[C@H](Cc2ccc(Cl)cc2Cl)NC(=O)[C@@H](Cc2cccs2)NC(=O)[C@@H]1OC(C)=O` [Compound 234] ([d2Thi][Phe(2,4-Cl2)][dF][dPhe(4-NH2)]-OH; linker N-4 via Tartaroyl(2R,3R-(OAc)2)), the pIC50 was less than 4.00.

For `CC(=O)O[C@H]1C(=O)Nc2ccc(cc2)C[C@@H](C(=O)O)NC(=O)[C@@H](CCc2ccccc2)NC(=O)[C@H](Cc2ccc(-c3ccccc3)cc2)NC(=O)[C@@H](Cc2ccccc2)NC(=O)[C@@H]1OC(C)=O` [Compound 235] ([dF][Bip][d(hPhe)][Phe(4-NH2)]-OH; linker N-4 via Tartaroyl(2R,3R-(OAc)2)), the pIC50 was 4.52 to 5.00.

Turning to `O=C1N[C@H](CCc2ccccc2)C(=O)N[C@@H](C(=O)O)Cc2ccc(cc2)NC(=O)[C@H](O)[C@@H](O)C(=O)N[C@H](Cc2cccs2)C(=O)N[C@H]1Cc1ccc(Br)cc1` [Compound 238], the pIC50 was more than 5.00.

As to `O=C1N[C@H](CCc2ccccc2)C(=O)N[C@@H](C(=O)O)Cc2ccc(cc2)NC(=O)[C@H](O)[C@@H](O)C(=O)N[C@H](Cc2cccs2)C(=O)N[C@H]1Cc1ccc(Cl)cc1Cl` [Compound 240], the pIC50 is 4.52 to 5.00.

For the compound `O=C1N[C@H](Cc2ccccc2)C(=O)N[C@@H](C(=O)O)Cc2ccc(cc2)NC(=O)[C@H](O)[C@@H](O)C(=O)N[C@H](Cc2ccccc2)C(=O)N[C@H]1Cc1ccc(-c2ccccc2)cc1` [Compound 241], the pIC50 is 4.00 to 4.52.

Regarding `O=C1N[C@H](Cc2ccccc2)C(=O)N[C@@H](C(=O)O)Cc2ccc(cc2)NC(=O)[C@H](O)[C@@H](O)C(=O)N[C@H](Cc2cccs2)C(=O)N[C@H]1Cc1ccc(Br)cc1` [Compound 242], the pIC50 is 4.00 to 4.52.

On to `O=C1N[C@H](Cc2ccccc2)C(=O)N[C@@H](C(=O)O)Cc2ccc(cc2)NC(=O)[C@H](O)[C@@H](O)C(=O)N[C@H](Cc2ccccc2)C(=O)N[C@H]1Cc1ccc(Cl)cc1Cl` [Compound 243], for which the pIC50 is 4.00 to 4.52.

Turning to `O=C1N[C@H](Cc2ccccc2)C(=O)N[C@@H](C(=O)O)Cc2ccc(cc2)NC(=O)[C@H](O)[C@@H](O)C(=O)N[C@H](Cc2cccs2)C(=O)N[C@H]1Cc1ccc(Cl)cc1Cl` [Compound 244], the pIC50 is 4.00 to 4.52.

As to `O=C(O)[C@@H]1Cc2ccc(cc2)NC(=O)[C@H](O)[C@@H](O)C(=O)N[C@H](Cc2ccccc2)C(=O)N[C@@H](Cc2ccc(-c3ccccc3)cc2)C(=O)N[C@H](CCc2ccccc2)C(=O)N1` [Compound 245], the pIC50 was 4.52 to 5.00.

With `O=C(O)[C@@H]1Cc2ccc(cc2)NC(=O)[C@H](O)[C@@H](O)C(=O)N[C@H](CCc2ccccc2)C(=O)N[C@@H](Cc2ccc(-c3ccccc3)cc2)C(=O)N[C@H](Cc2ccccc2)C(=O)N1` [Compound 246], the pIC50 is 4.00 to 4.52.

For the compound `O=C1CNC(=O)c2ccc(cc2)C[C@@H](C(=O)O)NC(=O)[C@@H](Cc2ccccc2)NC(=O)[C@H](Cc2ccc(-c3ccccc3)cc2)NC(=O)[C@@H](CCc2ccccc2)N1` [Compound 247] (G[d(hPhe)][Bip][dF][Phe(4-COOH)]-OH; lactam N-5), the pIC50 was less than 4.00.

Consider `O=C1CCCNC(=O)c2ccc(cc2)C[C@@H](C(=O)O)NC(=O)[C@@H](Cc2ccccc2)NC(=O)[C@H](Cc2ccc(-c3ccccc3)cc2)NC(=O)[C@@H](CCc2ccccc2)N1` [Compound 249] ([GABA][d(hPhe)][Bip][dF][Phe(4-COOH)]-OH; lactam N-5), for which the pIC50 is less than 4.00.

For `O=C1COc2ccc(cc2)C[C@@H](C(=O)O)NC(=O)[C@@H]2CCCN2C(=O)[C@@H](Cc2ccc(-c3ccccc3)cc2)NC(=O)[C@H](Cc2cccs2)N1` [Compound 250], the pIC50 was less than 4.00.

As for `O=C1CN(Cc2ccccc2)C(=O)[C@@H](Cc2ccc(-c3ccccc3)cc2)NC(=O)[C@H](Cc2cccs2)NC(=O)COc2ccc(cc2)C[C@@H](C(=O)O)N1` [Compound 253], the pIC50 was less than 4.00.

With `O=C1COc2ccc(cc2)C[C@@H](C(=O)O)NC(=O)[C@H](CCc2ccccc2)NC(=O)[C@H](Cc2ccc(-c3ccccc3)cc2)NC(=O)[C@H](Cc2cccs2)N1` [Compound 254], the pIC50 was 4.52 to 5.00.

Consider `O=C1COc2ccc(cc2)C[C@@H](C(=O)O)NC(=O)[C@@H]2CCCN2C(=O)[C@H](Cc2ccc(-c3ccccc3)cc2)NC(=O)[C@H](Cc2cccs2)N1` [Compound 255], for which the pIC50 was less than 4.00.

With `CC(=O)NCCCC[C@@H]1NC(=O)[C@H](Cc2ccc(-c3ccccc3)cc2)NC(=O)[C@H](Cc2cccs2)NC(=O)COc2ccc(cc2)C[C@@H](C(=O)O)NC1=O` [Compound 256], the pIC50 is less than 4.00.

For `O=C1CN(Cc2ccccc2)C(=O)[C@H](Cc2ccc(-c3ccccc3)cc2)NC(=O)[C@H](Cc2cccs2)NC(=O)COc2ccc(cc2)C[C@@H](C(=O)O)N1` [Compound 257], the pIC50 is less than 4.00.

`O=C(O)CC[C@@H]1NC(=O)[C@H](Cc2ccc(-c3ccccc3)cc2)NC(=O)[C@H](Cc2cccs2)NC(=O)COc2ccc(cc2)C[C@@H](C(=O)O)NC1=O` [Compound 258]: the pIC50 was less than 4.00.

In the case of `CC(C)(C)OC(=O)CC[C@@H]1NC(=O)[C@H](Cc2ccc(-c3ccccc3)cc2)NC(=O)[C@H](Cc2cccs2)NC(=O)COc2ccc(cc2)C[C@@H](C(=O)O)NC1=O` [Compound 259], the pIC50 is 4.00 to 4.52.

Consider `N#Cc1ccc(C[C@H]2NC(=O)[C@H](O)[C@@H](O)C(=O)Nc3ccc(cc3)C[C@@H](C(=O)O)NC(=O)[C@@H](Cc3ccccc3)NC(=O)[C@H](Cc3ccc(-c4ccccc4)cc3)NC2=O)cc1` [Compound 260], for which the pIC50 was 4.00 to 4.52.

As for `O=C(O)[C@@H]1Cc2ccc(cc2)NC(=O)[C@H](O)[C@@H](O)C(=O)N[C@H](Cc2ccc(F)cc2)C(=O)N[C@@H](Cc2ccc(-c3ccccc3)cc2)C(=O)N[C@H](Cc2ccccc2)C(=O)N1` [Compound 261], the pIC50 is 4.00 to 4.52.

Consider `O=C(O)[C@@H]1Cc2ccc(cc2)NC(=O)[C@H](O)[C@@H](O)C(=O)N[C@H](Cc2ccc(F)c(F)c2)C(=O)N[C@@H](Cc2ccc(-c3ccccc3)cc2)C(=O)N[C@H](Cc2ccccc2)C(=O)N1` [Compound 262], for which the pIC50 is 4.52 to 5.00.

In the case of `O=C(O)[C@@H]1Cc2ccc(cc2)NC(=O)[C@H](O)[C@@H](O)C(=O)N[C@H](Cc2ccc(C(F)(F)F)cc2)C(=O)N[C@@H](Cc2ccc(-c3ccccc3)cc2)C(=O)N[C@H](Cc2ccccc2)C(=O)N1` [Compound 263], the pIC50 was less than 4.00.

Take `Cc1ccc(C[C@H]2NC(=O)[C@H](O)[C@@H](O)C(=O)Nc3ccc(cc3)C[C@@H](C(=O)O)NC(=O)[C@@H](Cc3ccccc3)NC(=O)[C@H](Cc3ccc(-c4ccccc4)cc3)NC2=O)cc1` [Compound 264]: the pIC50 is less than 4.00.

Consider `N[C@H]1CNC(=O)c2ccc(cc2)C[C@@H](C(=O)O)NC(=O)[C@@H](Cc2ccccc2)NC(=O)[C@H](Cc2ccc(-c3ccccc3)cc2)NC(=O)[C@@H](CCc2ccccc2)NC1=O` [Compound 265] (H-[Dap][d(hPhe)][Bip][dF][Phe(4-COOH)]-OH; lactam 1-5), for which the pIC50 was less than 4.00.

As to `CC(=O)N[C@H]1CNC(=O)c2ccc(cc2)C[C@@H](C(=O)O)NC(=O)[C@@H](Cc2ccccc2)NC(=O)[C@H](Cc2ccc(-c3ccccc3)cc2)NC(=O)[C@@H](CCc2ccccc2)NC1=O` [Compound 266] (Ac-[Dap][d(hPhe)][Bip][dF][Phe(4-COOH)]-OH; lactam 1-5), the pIC50 is less than 4.00.

As for `O=C(O)CCC(=O)N[C@H]1CNC(=O)c2ccc(cc2)C[C@@H](C(=O)O)NC(=O)[C@@H](Cc2ccccc2)NC(=O)[C@H](Cc2ccc(-c3ccccc3)cc2)NC(=O)[C@@H](CCc2ccccc2)NC1=O` [Compound 267] (Suc-[Dap][d(hPhe)][Bip][dF][Phe(4-COOH)]-OH; lactam 1-5), the pIC50 was less than 4.00.

Take `O=C(O)[C@@H]1Cc2ccc(cc2)NC(=O)[C@H](O)[C@@H](O)C(=O)N[C@H](Cc2cccs2)C(=O)N[C@@H](Cc2ccc(-c3ccccc3)cc2)C(=O)N[C@@H](Cc2ccccc2)C(=O)N1` [Compound 268]: the pIC50 was less than 4.00.

On to `O=C(O)[C@@H]1Cc2ccc(cc2)NC(=O)[C@H](O)[C@@H](O)C(=O)N[C@H](Cc2cccs2)C(=O)N[C@H](Cc2ccc(-c3ccccc3)cc2)C(=O)N[C@H](Cc2ccccc2)C(=O)N1` [Compound 269], for which the pIC50 is less than 4.00.

Take `O=C(O)[C@@H]1Cc2ccc(cc2)NC(=O)[C@H](O)[C@@H](O)C(=O)N[C@@H](Cc2cccs2)C(=O)N[C@@H](Cc2ccc(-c3ccccc3)cc2)C(=O)N[C@H](Cc2ccccc2)C(=O)N1` [Compound 270]: the pIC50 is less than 4.00.

For `O=C(O)[C@@H]1Cc2ccc(cc2)NC(=O)[C@H](O)[C@@H](O)C(=O)N[C@@H](Cc2cccs2)C(=O)N[C@H](Cc2ccc(-c3ccccc3)cc2)C(=O)N[C@@H](Cc2ccccc2)C(=O)N1` [Compound 271], the pIC50 is less than 4.00.
